What was measured:
[1] = Stability of multibiotic agents in Simulated Intestinal Fluid (SIF); format: in vitro ADME; details: simulated intestinal fluid pH 6.7 with pancreatin, 37° C., 1 μM
Experimental: Assay 2. Stability of multibiotic agents in Simulated Intestinal Fluid (SIF). This assay can be used to assess the stability of a multibiotic agent in a small intestine. Phosphate buffer was prepared by dissolving 0.42 g of sodium hydroxide pellets and 3.95 g of monobasic sodium phosphate monohydrate and 6.19 g of sodium chloride in ultrapure water (MilliQ®, Millipore Sigma, Darmstadt, Germany). The pH was adjusted to 6.7 using aq. HCl and aq. NaOH, as necessary, and the solution was diluted with ultrapure water to produce 1 L of the pH 6.7 buffer. 112 mg FaSSIF powder (Biorelevant™, London, UK) was dissolved in 50 mL of the pH 6.7 buffer. 2 to 3 mL of the resulting solution were then added to 500 mg pancreatin (Millipore Sigma, Darmstadt, Germany). The resulting mixture was agitated by finger tapping the vessel containing the mixture until milky suspension formed. At this time, the remainder of the 50 mL FaSSiF/pH 6.7 buffer solution was added. The resulting suspension was flipped upside down 10 times to produce SIF, which was used fresh. Test compounds are dissolved in DMSO stock to 1 mM. An aliquot of the DMSO stock solution is removed and diluted in the SIF media in 15 mL falcon tubes to produce a mixture with a tested compound concentration of 1 μM. A 1 mL aliquot is immediately removed and diluted once with 1 volume of acetonitrile for T0 timepoint. The mixture is sealed and agitated at 37° C. in an incubator. Aliquots (1 mL) are removed at regular intervals and immediately quenched by the addition of 1 volume of acetonitrile. The resulting samples are analyzed by LC/MS to determine degradation rates.

[2] = Stability of multibiotic agents in Simulated Gastric Fluid (SGF); format: in vitro ADME; details: simulated gastric fluid pH 1.6 with pepsin, 37° C., 1 μM
Experimental: Assay 3. Stability of multibiotic agents in Simulated Gastric Fluid (SGF). This assay can be used to assess the stability of a multibiotic agent in a stomach.
Medium was prepared by dissolving 2 g of sodium chloride in 0.6 L in ultrapure water (MilliQ®, Millipore Sigma, Darmstadt, Germany). The pH was adjusted to 1.6 with 1 N hydrochloric acid, and the volume was then adjusted to 1 L with purified water.
60 mg FaSSIF powder (Biorelevant™, London, UK) were dissolved in 500 mL buffer (above). Pepsin was added (0.1 mg/mL) (Millipore Sigma, Darmstadt, Germany), and the solution was stirred. The resulting SGF media were used fresh for each experiment.
Test compounds were dissolved in DMSO stock to 1 mM. An aliquot of the DMSO stock solution was removed and diluted in the SGF Media in 15 mL falcon tubes to generate a total compound concentration of 1 μM. A 1 mL aliquot was immediately removed and diluted once with 1 volume of acetonitrile for T0 timepoint. The mixture was sealed and mixed at 37° C. in an incubator. Aliquots (1 mL) were removed at regular intervals and immediately quenched by the addition of 1 volume of acetonitrile. The resulting samples were analyzed by LC/MS to determine degradation rates in SGF.

With `CC(C)(COC(=O)Cc1c[nH]c2ccccc12)[C@@H](OC(=O)Cc1c[nH]c2ccccc12)C(=O)NCCCOC(=O)Cc1c[nH]c2ccccc12` [Example 92, 3-[[(2R)-2,4-bis[[2-(1H-indol-3-yl)acetyl]oxy]-3,3-dimethyl-butanoyl]amino]propyl 2-(1H-indol-3-yl)acetate] the “Assay 3 (SIF) (% @ Remaining 4 hours)” value [1] was “C (>75% of the tested compound remaining)” and the “Assay 2 (SGF) (% Remaining @ 4 hours)” value [2] was “C (>75% of the tested compound remaining)”.
With `CCCCCCCC(=O)Oc1ccc2c(c1)oc(=O)c1cc(OC(=O)CCCCCCC)c(OC(=O)CCCCCCC)cc12` [Example 57, [8,9-di(octanoyloxy)-6-oxo-benzo[c]chromen-3-yl] octanoate] the “Assay 2 (SGF) (% Remaining @ 4 hours)” value [2] was “C (>75% of the tested compound remaining)”.
In the case of `C[C@@H](O)CC(=O)OCC(C)(C)[C@@H](OC(=O)C[C@@H](C)O)C(=O)NCCC(N)=O` [Example 114, [(3R)-4-[(3-amino-3-oxo-propyl)amino]-3-[(3R)-3-hydroxybutanoyl]oxy-2,2-dimethyl-4-oxo-butyl] (3R)-3-hydroxybutanoate], the “Assay 3 (SIF) (% @ Remaining 4 hours)” value [1] is reported as “C (>75% of the tested compound remaining)” and the “Assay 2 (SGF) (% Remaining @ 4 hours)” value [2] is reported as “C (>75% of the tested compound remaining)”.
For `Cc1c(C)c2c(c(C)c1OC(=O)C1OCC[C@@H](C)O1)CC[C@@](C)(CCC[C@H](C)CCC[C@H](C)CCCC(C)C)O2` (stereo partly drawn) [Example 183, [(2R)-2,5,7,8-tetramethyl-2-[(4R,8R)-4,8,12-trimethyltridecyl]chroman-6-yl] (4R)-4-methyl-1,3-dioxane-2-carboxylate], the “Assay 3 (SIF) (% @ Remaining 4 hours)” value [1] was “A (<25% of the tested compound remaining)” and the “Assay 2 (SGF) (% Remaining @ 4 hours)” value [2] was “C (>75% of the tested compound remaining)”.
In the case of `CCCC(=O)OCC1(OC(=O)CCC)OC[C@@H](OC(=O)CCC)[C@H](OC(=O)CCC)[C@@H]1OC(=O)CCC` (stereo partly drawn) [Example 163, [(3S,4S,5R)-2,3,4,5-tetra(butanoyloxy)tetrahydropyran-2-yl]methyl butanoate], the “Assay 3 (SIF) (% @ Remaining 4 hours)” value [1] is reported as “A (<25% of the tested compound remaining)” and the “Assay 2 (SGF) (% Remaining @ 4 hours)” value [2] is reported as “B (25-75% of the tested compound remaining)”.
With `CC(=O)OCC(C)(C)[C@@H](OC(C)=O)C(=O)NCCC(N)=O` [Example 94, [(3R)-3-acetoxy-4-[(3-amino-3-oxo-propyl)amino]-2,2-dimethyl-4-oxo-butyl] acetate] the “Assay 3 (SIF) (% @ Remaining 4 hours)” value [1] was “C (>75% of the tested compound remaining)” and the “Assay 2 (SGF) (% Remaining @ 4 hours)” value [2] was “C (>75% of the tested compound remaining)”.
For `O=C(CCCc1ccccc1)Oc1ccc(/C=C/c2cc(OC(=O)CCCc3ccccc3)cc(OC(=O)CCCc3ccccc3)c2)cc1` [Example 9, [4-[(E)-2-[3,5-bis(4-phenylbutanoyloxy)phenyl]vinyl]phenyl] 4-phenylbutanoate], the “Assay 3 (SIF) (% @ Remaining 4 hours)” value [1] was “C (>75% of the tested compound remaining)”.
In the case of `CCC(=O)O[C@H]1[C@H](OC(=O)CC)COC(OC(=O)CCc2c[nH]c3ccccc23)[C@@H]1OC(=O)CC` (stereo partly drawn) [Example 168, [(3R,4S,5R)-3,4,5-tri(propanoyloxy)tetrahydropyran-2-yl] 3-(1H-indol-3-yl)propanoate], the “Assay 2 (SGF) (% Remaining @ 4 hours)” value [2] is reported as “C (>75% of the tested compound remaining)”.
With `O=C(/C=C/c1c[nH]c2ccccc12)O[C@H]1CO[C@H]2[C@@H]1OC[C@H]2OC(=O)/C=C/c1c[nH]c2ccccc12` [Example 123, [(3R,3aR,6S,6aR)-6-[(E)-3-(1H-indol-3-yl)prop-2-enoyl]oxy-2,3,3a,5,6,6a-hexahydrofuro[3,2-b]furan-3-yl] (E)-3-(1H-indol-3-yl)prop-2-enoate] the “Assay 3 (SIF) (% @ Remaining 4 hours)” value [1] was “C (>75% of the tested compound remaining)” and the “Assay 2 (SGF) (% Remaining @ 4 hours)” value [2] was “C (>75% of the tested compound remaining)”.
In the case of `CCCC(=O)O[C@H](C)CC(=O)Oc1ccc(/C=C/c2cc(OC(=O)C[C@@H](C)OC(=O)CCC)cc(OC(=O)C[C@@H](C)OC(=O)CCC)c2)cc1` [Example 72, [4-[(E)-2-[3,5-bis[[(3R)-3-butanoyloxybutanoyl]oxy]phenyl]vinyl]phenyl] (3R)-3-butanoyloxy-butanoate], the “Assay 3 (SIF) (% @ Remaining 4 hours)” value [1] is reported as “B (25-75% of the tested compound remaining)” and the “Assay 2 (SGF) (% Remaining @ 4 hours)” value [2] is reported as “C (>75% of the tested compound remaining)”.
In the case of `CCCC(=O)OC[C@H]1OC(O)[C@H](OC(=O)CCC)[C@@H](OC(=O)CCC)[C@@H]1OC(=O)CCC` (stereo partly drawn) [Example 161, [(2R,3R,4S,5R)-3,4,5-tri(butanoyloxy)-6-hydroxy-tetrahydropyran-2-yl]methyl butanoate], the “Assay 3 (SIF) (% @ Remaining 4 hours)” value [1] is reported as “A (<25% of the tested compound remaining)” and the “Assay 2 (SGF) (% Remaining @ 4 hours)” value [2] is reported as “C (>75% of the tested compound remaining)”.
With `CCCC(=O)O[C@@H]1[C@H](OC(=O)CCC)COC(O)[C@@H]1OC(=O)CCC` (stereo partly drawn) [Example 144, [(3R,4R,5R)-4,5-di(butanoyloxy)-6-hydroxy-tetrahydropyran-3-yl] butanoate] the “Assay 3 (SIF) (% @ Remaining 4 hours)” value [1] was “A (<25% of the tested compound remaining)” and the “Assay 2 (SGF) (% Remaining @ 4 hours)” value [2] was “C (>75% of the tested compound remaining)”.
With `CCCC(=O)OCc1cnc(C)c(OC(=O)CCC)c1COC(=O)CCC` [Example 100, [5-butanoyloxy-4-(butanoyloxymethyl)-6-methyl-3-pyridyl]methyl butanoate] the “Assay 3 (SIF) (% @ Remaining 4 hours)” value [1] was “C (>75% of the tested compound remaining)” and the “Assay 2 (SGF) (% Remaining @ 4 hours)” value [2] was “C (>75% of the tested compound remaining)”.
In the case of `Cc1ncc(COC(=O)Cc2c[nH]c3ccccc23)c(COC(=O)Cc2c[nH]c3ccccc23)c1OC(=O)Cc1c[nH]c2ccccc12` [Example 102, [5-[2-(1H-indol-3-yl)acetyl]oxy-4-[[2-(1H-indol-3-yl)acetyl]oxymethyl]-6-methyl-3-pyridyl]methyl 2-(1H-indol-3-yl)acetate], the “Assay 3 (SIF) (% @ Remaining 4 hours)” value [1] is reported as “B (25-75% of the tested compound remaining)” and the “Assay 2 (SGF) (% Remaining @ 4 hours)” value [2] is reported as “C (>75% of the tested compound remaining)”.
For `CC(=O)CC(=O)O[C@H]1CO[C@H]2[C@@H]1OC[C@H]2OC(=O)CC(C)=O` [Example 115, [(3S,3aR,6R,6aR)-6-(3-oxobutanoyloxy)-2,3,3a,5,6,6a-hexahydrofuro[3,2-b]furan-3-yl] 3-oxobutanoate], the “Assay 3 (SIF) (% @ Remaining 4 hours)” value [1] was “B (25-75% of the tested compound remaining)” and the “Assay 2 (SGF) (% Remaining @ 4 hours)” value [2] was “C (>75% of the tested compound remaining)”.
In the case of `CCCC(=O)O[C@@H]1[C@@H](OC(=O)CCC)[C@@H](Oc2ccc(N)cc2C(=O)O)OC[C@@H]1OC(=O)CCC` [Example 121, 5-amino-2-[(2R,3R,4S,5S)-3,4,5-tri(butanoyloxy)tetrahydropyran-2-yl]oxy-benzoic acid], the “Assay 3 (SIF) (% @ Remaining 4 hours)” value [1] is reported as “C (>75% of the tested compound remaining)”.
With `CCCCCCCCCC(=O)Oc1ccc(/C=C/c2cc(OC(=O)CCCCCCCCC)cc(OC(=O)CCCCCCCCC)c2)cc1` [Example 70, [4-[(E)-2-[3,5-di(decanoyloxy)phenyl]vinyl]phenyl] decanoate] the “Assay 2 (SGF) (% Remaining @ 4 hours)” value [2] was “C (>75% of the tested compound remaining)”.
For `CCCCCCCC(=O)Oc1ccc(/C=C/c2cc(OC(=O)CCCCCCC)cc(OC(=O)CCCCCCC)c2)cc1` [Example 69, [4-[(E)-2-[3,5-di(octanoyloxy)phenyl]vinyl]phenyl] octanoate], the “Assay 2 (SGF) (% Remaining @ 4 hours)” value [2] was “C (>75% of the tested compound remaining)”.
With `CCCC(=O)O[C@@H]1[C@@H](OC(=O)CCC)[C@H](Oc2ccccc2C(=O)O)OC[C@H]1OC(=O)CCC` [Example 120, 2-[(2S,3R,4S,5R)-3,4,5-tri(butanoyloxy)tetrahydropyran-2-yl]oxybenzoic acid] the “Assay 3 (SIF) (% @ Remaining 4 hours)” value [1] was “A (<25% of the tested compound remaining)”.
For `O=C(Cc1c[nH]c2ccccc12)O[C@H]1CO[C@H]2[C@@H]1OC[C@H]2OC(=O)Cc1c[nH]c2ccccc12` [Example 109, [(3S,3aR,6R,6aR)-6-[2-(1H-indol-3-yl)acetyl]oxy-2,3,3a,5,6,6a-hexahydrofuro[3,2-b]furan-3-yl] 2-(1H-indol-3-yl) acetate], the “Assay 3 (SIF) (% @ Remaining 4 hours)” value [1] was “A (<25% of the tested compound remaining)”.
In the case of `CC(C)(COC(=O)CCc1c[nH]c2ccccc12)[C@@H](OC(=O)CCc1c[nH]c2ccccc12)C(=O)NCCCOC(=O)CCc1c[nH]c2ccccc12` [Example 93, 3-[[(2R)-2,4-bis[3-(1H-indol-3-yl)propanoyloxy]-3,3-dimethyl-butanoyl]amino]propyl 3-(1H-indol-3-yl)propanoate], the “Assay 3 (SIF) (% @ Remaining 4 hours)” value [1] is reported as “A (<25% of the tested compound remaining)”.

Source: patent US20230293458A1, “MULTIBIOTIC AGENTS AND METHODS OF USING THE SAME” (Flagship Pioneering Innovations V, Inc., priority 2017, published 2023)
